Data from US20110173718A1, “HERBICIDE TOLERANT PLANTS” (SYNGENTA CROP PROTECTION, INC., priority 2008, published 2011).
Like-named read-outs stand apart in the source and are kept apart here. Marks after values point to notes of the source that are not given here.

Assays:
Chlamydomonas HST = target: T1, Chlamydomonas HST (Chlamydomonas reinhardtii, UniProt A1JHN0); assay: HST assay (TLC, MFBQ formed), recombinant Chlamydomonas HST in E. coli membranes; assay type: biochemical; details: for inhibition at 25 ppm: read-out: Chlamydomonas. HST % I at 25 ppm
T1 construct: GST (N); made in house; host or cells: E. coli (BL21A1 / BL21DE3), membrane fraction
T1 sequence (A1JHN0 51-370): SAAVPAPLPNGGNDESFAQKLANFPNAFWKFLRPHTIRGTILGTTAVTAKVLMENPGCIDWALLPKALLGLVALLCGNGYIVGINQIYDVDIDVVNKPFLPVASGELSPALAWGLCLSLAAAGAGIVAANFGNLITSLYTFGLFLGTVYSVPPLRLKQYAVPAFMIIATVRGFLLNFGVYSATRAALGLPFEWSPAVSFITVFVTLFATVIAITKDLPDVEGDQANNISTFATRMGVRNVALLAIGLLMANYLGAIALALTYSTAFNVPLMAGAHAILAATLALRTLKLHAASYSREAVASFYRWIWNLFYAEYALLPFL
In short: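 Recombinant GST-fused Chlamydomonas HST in E. coli membranes was incubated with 200 μM farnesyl diphosphate and 100 μM 14C-homogentisate in 50 mM Tricine-NaOH pH 8.5, 20 mM MgCl2 for ~20 min at 28 °C, with compounds in DMSO. Oxidised plus reduced MFBQ was quantified by TLC phosphorimaging. Results are percent inhibition versus no-inhibitor control across doses.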

Arabidopsis HST = target: T2, Arabidopsis HST (Arabidopsis thaliana, UniProt Q1ACB3); assay: HST total extraction (non TLC) assay, recombinant Arabidopsis HST from insect cells; assay type: biochemical
T2 construct: GST (factor Xa cleavage site) (N); made in house; host or cells: Sf9 insect cells (baculovirus, pAcG3X), membrane fraction
T2 sequence (Q1ACB3 70-386): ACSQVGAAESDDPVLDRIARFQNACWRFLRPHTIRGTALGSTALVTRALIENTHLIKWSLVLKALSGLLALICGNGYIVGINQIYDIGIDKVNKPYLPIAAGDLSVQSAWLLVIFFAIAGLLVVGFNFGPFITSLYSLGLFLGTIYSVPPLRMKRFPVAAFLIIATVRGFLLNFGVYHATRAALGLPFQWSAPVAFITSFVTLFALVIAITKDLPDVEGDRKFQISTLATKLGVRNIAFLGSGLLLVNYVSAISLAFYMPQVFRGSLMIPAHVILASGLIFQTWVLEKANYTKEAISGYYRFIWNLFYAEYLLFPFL

[1] = TLC, estimated amount of MFBQ formed, relative to controls
[2] = 3 point dose curves only conducted at 50 μM HPP
[3] = 25 ppm, TLC, estimated amount of MFBQ formed, relative to controls

Row | SMILES | inhibition at 25 ppm (Chlamydomonas HST; [3]) | Estimated IC50 (ppm) (Arabidopsis HST) | further results
1 | O=c1c(-c2c(F)ccc(F)c2Cl)c(O)c2nccnc2n1CC(F)F [Compound 2.3] | – | – | Chlamydomonas. HST % I at 10 ppm (Chlamydomonas HST; [1]): 40%; Chlamydomonas. HST % I at 100 ppm (Chlamydomonas HST; [1]): 85%; Estimated IC50 (ppm) (Arabidopsis HST; [2]): 19* ppm
2 | O=c1c(-c2c(Cl)ccc(Cl)c2Cl)c(O)c2nccnc2n1CC(F)F [Compound 2.14] | 85% | 9 ppm | –
3 | O=c1c(-c2c(F)ccc(F)c2Cl)c(O)c2cccnc2n1CC(F)F [Compound 2.13] | – | – | Chlamydomonas. HST % I at 25 ppm (Chlamydomonas HST; [3]): 60%; Estimated IC50 (ppm) (Arabidopsis HST; [2]): 54* ppm
4 | Oc1c(Cl)c(F)nc(F)c1Cl [Compound 1.1, haloxydine] | 80% | – | Chlamydomonas. HST % I at 10 ppm (Chlamydomonas HST; [1]): 70%; Chlamydomonas. HST % I at 100 ppm (Chlamydomonas HST; [1]): 95%; inhibition of the HST enzyme reaction (MFBQ and other products) (Chlamydomonas HST; 500 ppm, stated for the HST enzyme preparations assayed): completely inhibits
5 | O=c1c(-c2cc(C(F)(F)F)ccc2Cl)c(O)c2nccnc2n1CC(F)F [Compound 2.9] | 90% | 6 ppm | –
6 | O=c1c(-c2c(F)ccc(Br)c2Cl)c(O)c2nccnc2n1CC(F)F [Compound 2.8] | 85% | 12 ppm | –
7 | O=c1c(-c2c(F)ccc(Br)c2Cl)c(O)c2cccnc2n1CC(F)F [Compound 2.15] | – | 12 ppm | –
